Test results taken from patent US8188074B2 (priority 2001, dated 2012).
Read-outs that look alike come from different tables or passages of the source.

Tests used:
[1] = test system: RIF-1 murine fibrosarcoma cells; test: Cellular uptake in RIF-1 cells; assay type: cell-based; details: 2 h incubation, solubilised in 2% SDS, fluorescence
[2] = Octanol-buffer partition coefficient
Source text: The octanol buffer partition coefficient (p) determines the lipophilicity of the drug.

[3] = patients after administration; cited from earlier work
E. coli [4] = test: Photoinactivation of E. coli; assay type: cell-based; details: for log change in CFU/ml / percentage cell survival / log change CFU/ml: E. coli; for log change CFU/ml: laser light
Description: (§1) Cell inactivation was then measured.

C. albicans = test: Photoinactivation of C. albicans; assay type: cell-based, Candida albicans; details: 10 μM; laser light at 0.1 W
Description: as §1

S. aureus = details: 10 μM, laser light (665 nm) 0.1 W
Description: (§2) Stock solutions of the photosensitisers were made up to 5 mM in dimethylsulfoxide (DMSO). The 5 mM stock was further diluted in DMSO to a working concentration of 1 mM. All photosensitisers were stored in foil covered vials at room temperature until required.
(§3) The microorganisms were grown until in the mid-logarithmic phase and then harvested and resuspended.
(§4) The log or stationary phase cells were collected by centrifugation and washed twice in 0.1 M potassium phosphate buffer (pH 7.0). Following washing, the cells were resuspended in the same buffer to an absorbance of 0.87 at 650 nm.
(§5) 25 ml of the prepared cell suspension was incubated with 0.25 mls of a 1 mM stock solution of photosensitiser (giving a final concentration of 10 μM) in a 250 ml sterile foil covered conical flask. The suspension was incubated for 30 minutes in the dark in a 37° C. shaking incubator at 250 rpm.
(§6) After incubation with 10 μM phenothiazinium compound, 10 ml of the bacterial culture was aseptically transferred to a sterile cell. This consisted of a sealed vial with a sealed capillary tube inserted, into which the optical fibre could be placed. […]
(§7) 50 ml of the illuminated and non-illuminated samples of the suspension were removed and diluted in 0.1 M pH 7.0 potassium phosphate buffer. […] Cell inactivation was then measured.

E. coli [5] = test system: E. coli
P. aeruginosa = test: Photoinactivation of P. aeruginosa; details: 10 μM, laser light (665 nm) 0.1 W
Description: as §2, §3, §4, §5, §6, §7

[6] = octanol-buffer partition coefficient
[7] = 30 min with 10 μM, halogen lamp 60 minutes at 1.3 mW/cm^2

CCN(CC)c1ccc2nc3ccc(N(CC)CC)cc3[s+]c2c1.[Cl-] [Compound 6, ethylene blue, reference compound]
Uptake at PDT LD50 [1]: 2.9 nmol/mg protein
Log P [2, 6]: +0.2

Oc1cccc(-c2c3nc(c(-c4cccc(O)c4)c4ccc([nH]4)c(-c4cccc(O)c4)c4nc(c(-c5cccc(O)c5)c5ccc2[nH]5)CC4)C=C3)c1 [Foscan]
period of sensitivity to light [3]: approximately 15 days

CCCCCCN(CCCCCC)c1ccc2nc3ccc(N(CCCCCC)CCCCCC)cc3[s+]c2c1.[Br-] [Compound 4]
log change in CFU/ml (E. coli [4]; [7]): 0.19 log10
percentage cell survival (E. coli [4]; [7]): 65.3%
Uptake at PDT LD50 [1]: 1.6 nmol/mg protein
Log P [2, 6]: +1.3

3-(N,N-diethanolamino)-7-(N,N-dipentylamino)-phenothiazin-5-ium iodide [Compound 28]
Log P [2]: +1.1

3,7-(tetra-n-butylamino)-phenothiazin-5-ium [Compound 2]
killing of Candida albicans in the light, FIG. 16 (C. albicans): readily destroyed
bacteria inactivated (S. aureus; 1 minute): ~99%
cell kill (S. aureus; 10 minutes): ~5 logs
log change in CFU/ml of washed versus unwashed E. coli cells, FIG. 10 (E. coli [4]; 10 μM, washed twice, laser light (665 nm) 0.1 W for 4 minutes): little difference
log change in CFU/ml (E. coli [4]; [7]): 5.1 log10
percentage cell survival (E. coli [4]; [7]): 0.001%
log change in CFU/ml (E. coli [4]; 30 min with 10 μM, illuminated 15 minutes at 1.3 mW/cm^2): 4.59 log10 units
log change in CFU/ml (E. coli [4]; 30 min with 50 μM, illuminated 15 minutes at 1.3 mW/cm^2): 2.15 units
log change CFU/ml (E. coli [4]; 14 minute illumination at 0.1 W): 5.69 log
log change CFU/ml (E. coli [4]; 20 minute illumination at 0.1 W, number of CFU too small to be statistically reliable): ~8.5 units
antibacterial activity, E. coli resuspended in nutrient medium, FIG. 7 (E. coli [4]; nutrient medium, 10 μM, 60 minutes at 1.3 mW/cm^2): highest antibacterial activity
growth of an E. coli culture in the dark compared to control, FIG. 11 (E. coli [5]; 10 μM in growth media, dark, 37° C., 6 hours, turbidity at 550 nm): greatest inhibition
growth of E. coli after addition of photosensitiser at 3 hours, in the dark, FIG. 12 (E. coli [5]; 10 μM, dark): continuing growth
growth of E. coli after addition of photosensitiser at 3 hours, in the light, FIG. 12 (E. coli [5]; 10 μM, light): complete elimination of growth
cell kill (P. aeruginosa; 2 minutes): greater than 99%
cell kill (P. aeruginosa; 10 minutes): ~4 logs

CCCCN(CCCC)c1ccc2nc3ccc(N4CCOCC4)cc3[s+]c2c1.[I-] [Compound 24]
Log P [2, 6]: +1.0
